We go through 6 compounds from PubChem BioAssay (NCI).

SMILES strings stand for the structures.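 Where inhibition never reached the appropriate level, the endpoint shown equals the highest concentration tested. Otherwise, values were interpolated linearly from a five-concentration, 48-hour dose response in 96-well plates. GI50: concentration for 50% inhibition of growth. At the TGI there is no net growth.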

Test systems include CAKI-1 renal; SK-MEL-5 melanoma; PC-3 prostate; NCI-H460 lung; HCT-15 colon; ACHN renal; EKVX NSCLC; UACC-62 melanoma; HS 578T breast; A498 renal.
What all share (assay): growth of human tumour cells (NCI), 48 h

In the case of `[O]=[V]([OH])([OH])[OH]`, the GI50 in the assay with CAKI-1 renal is 25.6 µM; in the assay with SK-MEL-5 melanoma it was above 100 µM; with PC-3 prostate, above 100 µM; with NCI-H460 lung, above 100 µM; with HCT-15 colon, above 100 µM; in the assay with ACHN renal, above 100 µM. The GI50 in the assay on EKVX NSCLC, in the assay on UACC-62 melanoma, in the assay with HS 578T breast and with A498 renal was above 100 µM in each case. For the same compound, the TGI in the assay on CAKI-1 renal is 70.6 µM; with SK-MEL-5 melanoma, above 100 µM; in the assay with PC-3 prostate, above 100 µM; in the assay on NCI-H460 lung it was above 100 µM; in the assay on HCT-15 colon, above 100 µM; in the assay on ACHN renal, above 100 µM. Further, the TGI in the assay with EKVX NSCLC, in the assay with UACC-62 melanoma, in the assay with HS 578T breast and in the assay on A498 renal was above 100 µM each time.
Turning to `CC(=O)Oc1ccc(C2=Cc3ccc(OC(C)=O)cc3OC2C)cc1` (stereo not given), the GI50 in the assay with CAKI-1 renal was 2.31 µM; in the assay on SK-MEL-5 melanoma it was 7.24 µM; with PC-3 prostate it was 5.8 µM; in the assay with NCI-H460 lung it was 3.35 µM; in the assay on HCT-15 colon it was 5.07 µM; with ACHN renal, 2.29 µM. Besides, the GI50 in the assay with EKVX NSCLC is 2.38 µM; in the assay with UACC-62 melanoma, 4.61 µM; in the assay on HS 578T breast, 2.75 µM; with A498 renal, 2.25 µM. The TGI with CAKI-1 renal was 5.73 µM; with SK-MEL-5 melanoma, 29.9 µM; with PC-3 prostate it was above 100 µM; in the assay with NCI-H460 lung it was 13.2 µM; in the assay with HCT-15 colon it was 26.1 µM; with ACHN renal it was above 100 µM. Moreover, the TGI with EKVX NSCLC is 13.5 µM; in the assay on UACC-62 melanoma, 25.1 µM; in the assay on HS 578T breast, 7.81 µM; with A498 renal, 7.95 µM.
As for `Nc1nccc(-c2c(-c3ccc(F)cc3)nn3cc(C(F)(F)F)ccc23)n1`, the GI50 in the assay with CAKI-1 renal, with SK-MEL-5 melanoma, in the assay on PC-3 prostate, in the assay on NCI-H460 lung, in the assay on HCT-15 colon and in the assay on ACHN renal was above 25 µM each time. Besides, the GI50 with EKVX NSCLC, with UACC-62 melanoma, in the assay on HS 578T breast and in the assay on A498 renal was above 25 µM in each case. The TGI in the assay on CAKI-1 renal, in the assay on SK-MEL-5 melanoma, with PC-3 prostate, in the assay on NCI-H460 lung, in the assay on HCT-15 colon and in the assay on ACHN renal was above 25 µM in each case. Besides, the TGI with EKVX NSCLC, in the assay on UACC-62 melanoma, in the assay with HS 578T breast and with A498 renal was above 25 µM throughout.
As for `Cc1cccc(Cn2cc(CO)c3cnccc32)c1`, the GI50 was above 100 µM with CAKI-1 renal; 24.1 µM in the assay on SK-MEL-5 melanoma; 28.2 µM in the assay with PC-3 prostate; 57.5 µM with NCI-H460 lung; above 100 µM in the assay on HCT-15 colon; above 100 µM with ACHN renal. In addition, the GI50 in the assay with EKVX NSCLC was 20.9 µM; in the assay on UACC-62 melanoma, 75.4 µM; in the assay on HS 578T breast, above 100 µM; in the assay on A498 renal it was 10 µM. Further, the TGI in the assay with CAKI-1 renal, in the assay with SK-MEL-5 melanoma, in the assay on PC-3 prostate, in the assay on NCI-H460 lung, in the assay with HCT-15 colon and with ACHN renal was above 100 µM each time. For the same compound, the TGI in the assay on EKVX NSCLC was above 100 µM; in the assay with UACC-62 melanoma, above 100 µM; in the assay with HS 578T breast, above 100 µM; in the assay on A498 renal, 26.7 µM.
As for `O=C(c1cccs1)c1c(C(F)(F)F)n([O-])c2cc(Cl)c(Cl)cc2[n+]1=O`, the GI50 was 1.53 µM in the assay on CAKI-1 renal; 1.28 µM with SK-MEL-5 melanoma; 1.37 µM in the assay on PC-3 prostate; 1.39 µM with NCI-H460 lung; 0.286 µM with HCT-15 colon; 0.423 µM in the assay on ACHN renal. In addition, the GI50 with EKVX NSCLC was 2.11 µM; in the assay with UACC-62 melanoma it was 1.18 µM; in the assay with HS 578T breast, 2.02 µM; with A498 renal, 1.27 µM. In addition, the TGI was found to be 2.92 µM in the assay with CAKI-1 renal; 2.65 µM in the assay with SK-MEL-5 melanoma; 2.81 µM with PC-3 prostate; 4.07 µM in the assay with NCI-H460 lung; 0.808 µM with HCT-15 colon; 0.853 µM with ACHN renal. The TGI with EKVX NSCLC came out at 4.04 µM; in the assay with UACC-62 melanoma it was 2.54 µM; in the assay on HS 578T breast, 4.11 µM; in the assay on A498 renal it was 2.61 µM.
Regarding `CN(C)c1ccc(-c2cc(-c3ccc(Nc4nc(Nc5ccc(Cl)cc5)nc(Nc5ccc(Cl)cc5)n4)cc3)nc(N)c2C#N)cc1`, the GI50 in the assay on CAKI-1 renal was above 100 µM; with SK-MEL-5 melanoma, 4.56 µM; with PC-3 prostate it was 1.53 µM; in the assay with NCI-H460 lung it was 15.4 µM; in the assay with HCT-15 colon, 3.7 µM; in the assay on ACHN renal, 13.1 µM. Also, the GI50 is above 100 µM in the assay on EKVX NSCLC, 20.4 µM with UACC-62 melanoma, 3.94 µM in the assay with HS 578T breast and 6.41 µM in the assay on A498 renal. The TGI was above 100 µM in the assay on CAKI-1 renal; above 100 µM in the assay on SK-MEL-5 melanoma; 7.44 µM in the assay with PC-3 prostate; above 100 µM in the assay with NCI-H460 lung; above 100 µM with HCT-15 colon; above 100 µM in the assay on ACHN renal. Further, the TGI with EKVX NSCLC is above 100 µM; in the assay with UACC-62 melanoma it was 92.7 µM; in the assay with HS 578T breast, 59.3 µM; in the assay with A498 renal, above 100 µM.
